{
  "source": "patent US8192962B2",
  "about": "“Processes for detecting toxic substances” (Daikin Industries, Ltd., priority 2001, dated 2012)",
  "key": {"DNA repair protein genes": {"test_system": "DNA repair protein genes", "experiment": "DNA chip mRNA expression in yeast, DNA repair protein genes (Table 3)", "assay_type": "cell-based, Saccharomyces cerevisiae S288C", "details": "incubated two hours, concentrations as in the 1st table", "in_short": "(§1)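 S. cerevisiae S288C grown at 25° C. in YPD to log phase, then exposed 2 h to a toxicant at a growth-inhibiting, non-lethal concentration; untreated cells as control. Poly(A) mRNA reverse-transcribed with Cy3-dUTP or Cy5-dUTP, hybridized >12 h at 65° C. to whole-genome yeast DNA chip; value = fluorescence ratio treated/untreated.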"}, "[1]": {"test_system": "Detoxification protein genes", "experiment": "DNA chip mRNA expression in yeast, detoxification protein genes (Table 8)", "assay_type": "cell-based, Saccharomyces cerevisiae S288C", "in_short": "as §1"}},
  "data": [
    {"smiles": "[Cl][Hg][Cl]", "note": "[(3), HgCl2]", "values": [
      {"measurement": "The level of expressed mRNA in the presence of chemical substance/The level of expressed mRNA in the absence of chemical substance", "setting": "DNA repair protein genes; yeast gene YAL015C", "result": 1.7},
      {"measurement": "The level of expressed mRNA in the presence of chemical substance/The level of expressed mRNA in the absence of chemical substance", "setting": "DNA repair protein genes; yeast gene YAR007C", "result": 0.8},
      {"measurement": "The level of expressed mRNA in the presence of chemical substance/The level of expressed mRNA in the absence of chemical substance", "setting": "DNA repair protein genes; yeast gene YBL019W", "result": 0.7},
      {"measurement": "The level of expressed mRNA in the presence of chemical substance/The level of expressed mRNA in the absence of chemical substance", "setting": "DNA repair protein genes; yeast gene YBR073W", "result": 0.9},
      {"measurement": "The level of expressed mRNA in the presence of chemical substance/The level of expressed mRNA in the absence of chemical substance", "setting": "DNA repair protein genes; yeast gene YBR272C", "result": 1.3},
      {"measurement": "The level of expressed mRNA in the presence of chemical substance/The level of expressed mRNA in the absence of chemical substance", "setting": "DNA repair protein genes; yeast gene YCR014C", "result": 0.8},
      {"measurement": "The level of expressed mRNA in the presence of chemical substance/The level of expressed mRNA in the absence of chemical substance", "setting": "DNA repair protein genes; yeast gene YDL017W", "result": 1.2},
      {"measurement": "The level of expressed mRNA in the presence of chemical substance/The level of expressed mRNA in the absence of chemical substance", "setting": "DNA repair protein genes; yeast gene YDL059C", "result": 1.4},
      {"measurement": "The level of expressed mRNA in the presence of chemical substance/The level of expressed mRNA in the absence of chemical substance", "setting": "DNA repair protein genes; yeast gene YDL200C", "result": 1.2},
      {"measurement": "The level of expressed mRNA in the presence of chemical substance/The level of expressed mRNA in the absence of chemical substance", "setting": "DNA repair protein genes; yeast gene YDR054C", "result": 0.7},
      {"measurement": "The level of expressed mRNA in the presence of chemical substance/The level of expressed mRNA in the absence of chemical substance", "setting": "DNA repair protein genes; yeast gene YDR369C", "result": 2.4},
      {"measurement": "The level of expressed mRNA in the presence of chemical substance/The level of expressed mRNA in the absence of chemical substance", "setting": "DNA repair protein genes; yeast gene YEL019C", "result": 0.3},
      {"measurement": "The level of expressed mRNA in the presence of chemical substance/The level of expressed mRNA in the absence of chemical substance", "setting": "DNA repair protein genes; yeast gene YEL037C", "result": 0.9},
      {"measurement": "The level of expressed mRNA in the presence of chemical substance/The level of expressed mRNA in the absence of chemical substance", "setting": "DNA repair protein genes; yeast gene YER162C", "result": 1.0},
      {"measurement": "The level of expressed mRNA in the presence of chemical substance/The level of expressed mRNA in the absence of chemical substance", "setting": "DNA repair protein genes; yeast gene YFL014W", "result": 5.7},
      {"measurement": "The level of expressed mRNA in the presence of chemical substance/The level of expressed mRNA in the absence of chemical substance", "setting": "DNA repair protein genes; yeast gene YGL058W", "result": 0.6},
      {"measurement": "The level of expressed mRNA in the presence of chemical substance/The level of expressed mRNA in the absence of chemical substance", "setting": "DNA repair protein genes; yeast gene YGL091C", "result": 1.0},
      {"measurement": "The level of expressed mRNA in the presence of chemical substance/The level of expressed mRNA in the absence of chemical substance", "setting": "DNA repair protein genes; yeast gene YGL127C", "result": 1.3},
      {"measurement": "The level of expressed mRNA in the presence of chemical substance/The level of expressed mRNA in the absence of chemical substance", "setting": "DNA repair protein genes; yeast gene YGL163C", "result": 0.6},
      {"measurement": "The level of expressed mRNA in the presence of chemical substance/The level of expressed mRNA in the absence of chemical substance", "setting": "DNA repair protein genes; yeast gene YGL249W", "result": 0.5},
      {"measurement": "The level of expressed mRNA in the presence of chemical substance/The level of expressed mRNA in the absence of chemical substance", "setting": "DNA repair protein genes; yeast gene YGR180C", "result": 1.9},
      {"measurement": "The level of expressed mRNA in the presence of chemical substance/The level of expressed mRNA in the absence of chemical substance", "setting": "DNA repair protein genes; yeast gene YGR231C", "result": 0.7},
      {"measurement": "The level of expressed mRNA in the presence of chemical substance/The level of expressed mRNA in the absence of chemical substance", "setting": "DNA repair protein genes; yeast gene YGR258C", "result": 0.7},
      {"measurement": "The level of expressed mRNA in the presence of chemical substance/The level of expressed mRNA in the absence of chemical substance", "setting": "DNA repair protein genes; yeast gene YHR164C", "result": 0.9},
      {"measurement": "The level of expressed mRNA in the presence of chemical substance/The level of expressed mRNA in the absence of chemical substance", "setting": "DNA repair protein genes; yeast gene YIL036W", "result": 1.3},
      {"measurement": "The level of expressed mRNA in the presence of chemical substance/The level of expressed mRNA in the absence of chemical substance", "setting": "DNA repair protein genes; yeast gene YIL072W", "result": 1.1},
      {"measurement": "The level of expressed mRNA in the presence of chemical substance/The level of expressed mRNA in the absence of chemical substance", "setting": "DNA repair protein genes; yeast gene YIL143C", "result": 1.1},
      {"measurement": "The level of expressed mRNA in the presence of chemical substance/The level of expressed mRNA in the absence of chemical substance", "setting": "DNA repair protein genes; yeast gene YIL153W", "result": 1.3},
      {"measurement": "The level of expressed mRNA in the presence of chemical substance/The level of expressed mRNA in the absence of chemical substance", "setting": "DNA repair protein genes; yeast gene YIR002C", "result": 0.5},
      {"measurement": "The level of expressed mRNA in the presence of chemical substance/The level of expressed mRNA in the absence of chemical substance", "setting": "DNA repair protein genes; yeast gene YJL026W", "result": 2.9},
      {"measurement": "The level of expressed mRNA in the presence of chemical substance/The level of expressed mRNA in the absence of chemical substance", "setting": "DNA repair protein genes; yeast gene YJR046W", "result": 1.2},
      {"measurement": "The level of expressed mRNA in the presence of chemical substance/The level of expressed mRNA in the absence of chemical substance", "setting": "DNA repair protein genes; yeast gene YJR052W", "result": 1.1},
      {"measurement": "The level of expressed mRNA in the presence of chemical substance/The level of expressed mRNA in the absence of chemical substance", "setting": "DNA repair protein genes; yeast gene YKL145W", "result": 1.2},
      {"measurement": "The level of expressed mRNA in the presence of chemical substance/The level of expressed mRNA in the absence of chemical substance", "setting": "DNA repair protein genes; yeast gene YLR103C", "result": 1.1},
      {"measurement": "The level of expressed mRNA in the presence of chemical substance/The level of expressed mRNA in the absence of chemical substance", "setting": "DNA repair protein genes; yeast gene YLR233C", "result": 2.0},
      {"measurement": "The level of expressed mRNA in the presence of chemical substance/The level of expressed mRNA in the absence of chemical substance", "setting": "DNA repair protein genes; yeast gene YLR288C", "result": 1.6},
      {"measurement": "The level of expressed mRNA in the presence of chemical substance/The level of expressed mRNA in the absence of chemical substance", "setting": "DNA repair protein genes; yeast gene YML032C", "result": 1.1},
      {"measurement": "The level of expressed mRNA in the presence of chemical substance/The level of expressed mRNA in the absence of chemical substance", "setting": "DNA repair protein genes; yeast gene YML058W", "result": 5.8},
      {"measurement": "The level of expressed mRNA in the presence of chemical substance/The level of expressed mRNA in the absence of chemical substance", "setting": "DNA repair protein genes; yeast gene YMR035W", "result": 1.5},
      {"measurement": "The level of expressed mRNA in the presence of chemical substance/The level of expressed mRNA in the absence of chemical substance", "setting": "DNA repair protein genes; yeast gene YMR072W", "result": 1.4},
      {"measurement": "The level of expressed mRNA in the presence of chemical substance/The level of expressed mRNA in the absence of chemical substance", "setting": "DNA repair protein genes; yeast gene YMR096W", "result": 1.1},
      {"measurement": "The level of expressed mRNA in the presence of chemical substance/The level of expressed mRNA in the absence of chemical substance", "setting": "DNA repair protein genes; yeast gene YMR284W", "result": 0.5},
      {"measurement": "The level of expressed mRNA in the presence of chemical substance/The level of expressed mRNA in the absence of chemical substance", "setting": "DNA repair protein genes; yeast gene YNL213C", "result": 0.9},
      {"measurement": "The level of expressed mRNA in the presence of chemical substance/The level of expressed mRNA in the absence of chemical substance", "setting": "DNA repair protein genes; yeast gene YNL250W", "result": 0.8},
      {"measurement": "The level of expressed mRNA in the presence of chemical substance/The level of expressed mRNA in the absence of chemical substance", "setting": "DNA repair protein genes; yeast gene YNL261W", "result": 0.6},
      {"measurement": "The level of expressed mRNA in the presence of chemical substance/The level of expressed mRNA in the absence of chemical substance", "setting": "DNA repair protein genes; yeast gene YNL312W", "result": 1.6},
      {"measurement": "The level of expressed mRNA in the presence of chemical substance/The level of expressed mRNA in the absence of chemical substance", "setting": "DNA repair protein genes; yeast gene YOL043C", "result": 0.8},
      {"measurement": "The level of expressed mRNA in the presence of chemical substance/The level of expressed mRNA in the absence of chemical substance", "setting": "DNA repair protein genes; yeast gene YOR005C", "result": 1.0},
      {"measurement": "The level of expressed mRNA in the presence of chemical substance/The level of expressed mRNA in the absence of chemical substance", "setting": "DNA repair protein genes; yeast gene YOR386W", "result": 1.3},
      {"measurement": "The level of expressed mRNA in the presence of chemical substance/The level of expressed mRNA in the absence of chemical substance", "setting": "DNA repair protein genes; yeast gene YPL022W", "result": 0.7},
      {"measurement": "The level of expressed mRNA in the presence of chemical substance/The level of expressed mRNA in the absence of chemical substance", "setting": "DNA repair protein genes; yeast gene YPL164C", "result": 1.1},
      {"measurement": "The level of expressed mRNA in the presence of chemical substance/The level of expressed mRNA in the absence of chemical substance", "setting": "DNA repair protein genes; yeast gene YPL194W", "result": 0.4},
      {"measurement": "The level of expressed mRNA in the presence of chemical substance/The level of expressed mRNA in the absence of chemical substance", "setting": "DNA repair protein genes; yeast gene YPR025C", "result": 0.6},
      {"measurement": "The level of expressed mRNA in the presence of chemical substance/The level of expressed mRNA in the absence of chemical substance", "setting": "[1]; yeast gene YBL064C", "result": 3.9},
      {"measurement": "The level of expressed mRNA in the presence of chemical substance/The level of expressed mRNA in the absence of chemical substance", "setting": "[1]; yeast gene YBR008C", "result": 4.9},
      {"measurement": "The level of expressed mRNA in the presence of chemical substance/The level of expressed mRNA in the absence of chemical substance", "setting": "[1]; yeast gene YBR145W", "result": 2.8}
    ]}
  ]
}
